Test results published in patent publication US20060110385A1, “Means and methods for diagnosing and treating affective disorders” (Affectis Pharmaceuticals AG, priority 2003, published 2006).
Entries after “also recorded” stand apart in the source; their conditions may differ.

Assays:
[1] = tested on: mice; assay: Open field test (locomotor activity) after BzATP; type: in vivo, mouse; conditions: 50 μM BzATP, 24 hours after injection, 30 minutes
Protocol: Locomotor activity was monitored for a period of 30 minutes using a video camera. Overall distance travelled by the animals during the testing period was then analysed by means of VideoMot2 computer software (TSE GmbH, Bad Homburg).

[2] = target: T1, P2X7R (Homo sapiens, UniProt Q99572); conditions: dose response curve, Y-axis ion current; cited from earlier work
T1 sequence (Q99572 1-595): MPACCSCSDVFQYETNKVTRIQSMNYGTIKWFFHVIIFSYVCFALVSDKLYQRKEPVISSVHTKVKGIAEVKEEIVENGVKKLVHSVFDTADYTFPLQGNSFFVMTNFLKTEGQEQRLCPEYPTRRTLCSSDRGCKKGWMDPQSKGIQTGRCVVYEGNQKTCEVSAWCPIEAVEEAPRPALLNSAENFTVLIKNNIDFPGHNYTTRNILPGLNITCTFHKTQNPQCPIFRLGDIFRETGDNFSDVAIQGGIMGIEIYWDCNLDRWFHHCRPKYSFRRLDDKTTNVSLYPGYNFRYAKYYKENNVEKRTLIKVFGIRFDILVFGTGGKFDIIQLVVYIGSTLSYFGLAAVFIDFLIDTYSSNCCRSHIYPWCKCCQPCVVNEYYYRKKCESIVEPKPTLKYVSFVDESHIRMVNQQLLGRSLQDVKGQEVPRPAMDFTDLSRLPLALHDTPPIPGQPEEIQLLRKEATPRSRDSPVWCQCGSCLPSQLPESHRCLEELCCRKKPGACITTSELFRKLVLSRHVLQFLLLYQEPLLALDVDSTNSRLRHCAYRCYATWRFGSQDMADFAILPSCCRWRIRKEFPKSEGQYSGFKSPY

[3] = target: T2, P2X7R (Mus musculus, UniProt Q9Z1M0); assay: Calcium influx into HT-22 cells (Oregon green AM ester); type: cell-based; conditions: 100 μM BzATP, 15 minutes
T2 construct: endogenous in cells; host or cells: HT-22 (immortalised mouse hippocampal cell line)
T2 sequence (Q9Z1M0 1-595): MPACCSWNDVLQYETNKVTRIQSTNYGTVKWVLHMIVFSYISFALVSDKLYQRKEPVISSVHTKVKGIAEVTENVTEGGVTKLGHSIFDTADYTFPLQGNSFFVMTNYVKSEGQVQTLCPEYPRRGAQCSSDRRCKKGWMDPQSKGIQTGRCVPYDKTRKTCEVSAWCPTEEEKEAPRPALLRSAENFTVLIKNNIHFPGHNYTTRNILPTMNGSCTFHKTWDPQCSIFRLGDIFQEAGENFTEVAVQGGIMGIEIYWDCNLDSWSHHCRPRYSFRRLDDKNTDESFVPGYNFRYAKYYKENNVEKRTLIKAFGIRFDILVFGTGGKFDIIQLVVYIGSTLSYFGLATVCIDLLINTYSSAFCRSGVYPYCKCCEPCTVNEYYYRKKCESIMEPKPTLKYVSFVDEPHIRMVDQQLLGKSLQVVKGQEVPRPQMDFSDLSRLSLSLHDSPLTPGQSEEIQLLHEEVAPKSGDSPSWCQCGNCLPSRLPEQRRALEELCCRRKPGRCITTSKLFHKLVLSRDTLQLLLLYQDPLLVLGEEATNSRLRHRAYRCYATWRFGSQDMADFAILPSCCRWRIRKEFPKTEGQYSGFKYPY
Source text: Since P2X7R is an ATP-gated ion channel which allows the entry of calcium and sodium ions into cells, a method for identifying P2X7R agonist was established by monitoring calcium influx into HT-22 cells. […] Calcium movement into the cells was visualised under a fluorescent microscope with a fluorescein filter (wavelength 492/517 nm). Oregon green AM ester is a fluorescent dye that binds to intracellular calcium.
Activation of P2X7R by the agonist was inhibited by oATP (FIG. 18) as illustrated by the absence of green fluorescence in the cells.

[4] = target: T2, P2X7R; assay: Entry of ethidium bromide into HT-22 cells; type: cell-based; conditions: HT-22 cells, 60 minutes, 10^−4M ethidium bromide; 1 μM to 1 mM tested
Source text: Yet another method of measuring P2X7R activity involves the entry of ethidium bromide into P2X7R expressing cells. Activation of P2X7R by an agonist allows the entry of ethidium bromide which binds nuclear DNA and emits a fluorescence signal. Alternatively, the propidium dye YOPRO-1 can be substituted for ethidium bromide. An increase in fluorescence can be used as a measure of P2X7 receptor activation. Therefore, the assay can be used to test and quantify the effect of an agent or compound with agonist properties on P2X7R. In the present example, 10^3 HT-22 cells were seeded per well in a 96-well flat bottom microtitre plates and incubated at 37° C./5% CO2 in DMEM medium containing 10% FCS until the cells attached to the culture surface. […] The number of fluorescent cells which have integrated the ethidium bromide to the DNA can then be counted using a fluorescent microscope (Zeiss, Germany). […] Alternatively, ethidium bromide fluorescence can be measured using a Perkin-Elmer fluorescent plate reader (excitation 520 nm, emission 595 nm, slit widths: Ex 15 nm, Em 20 nm). From the readings obtained, a pIC50 figure can be calculated for each candidate agent or compound. […] The specificity of an agonist for P2X7R can be evaluated by pre-incubation of the cells for 60 minutes with 100 μM o-ATP before adding the agonist and ethidium bromide dye.

For “2′-3′-O-(4-Benzoylbenzoyl)adenosine 5′-triphosphate [BzATP]”, the “locomotor activity (overall distance travelled)” value [1] is given as “No difference in locomotor activity”, the EC50 [2] is given as 8 µM and the “calcium influx (green fluorescence)” value [3] is given as “Increase calcium influx; also recorded: increase in green fluorescence”. The “concentration that increased the number of fluorescent nuclei” value [4] was “above 100 μM”.
